Laboratory results taken from ChEMBL document CHEMBL6083185, “Unraveling the future: Innovative design strategies and emerging challenges in HER2-targeted tyrosine kinase inhibitors for cancer therapy” (Eur J Med Chem, 2024).

Experiments:
[1] = Antiproliferative activity against human NCI-H1975 cells harboring EGFR L858R mutant assessed as reduction in cell viability measured after 72 hrs by MTT assay; assay type: functional, cell-based; details: NCI-H1975, 72 h
[2] = target: T1, Epidermal growth factor receptor (Homo sapiens, UniProt P00533)
Description: Inhibition of EGFR (unknown origin)

[3] = target: T2, Receptor tyrosine-protein kinase erbB-2 (Homo sapiens, UniProt P04626); experiment: Inhibition of HER2 (unknown origin)
[4] = Half life in human; assay type: ADME
BT-474 [5] = experiment: Antiproliferative activity against human BT-474 cells; assay type: functional, cell-based
[6] = target: T2, Receptor tyrosine-protein kinase erbB-2; experiment: Inhibition of flag-tagged HER2 (unknown origin) extracted from Escherichia coli
NCI-N87 [7] = experiment: Antiproliferative activity against human NCI-N87 cells; assay type: functional, cell-based
[8] = Metabolic stability in human liver microsomes assessed as half life; assay type: ADME, Microsome
[9] = target: Receptor tyrosine-protein kinase erbB-2 (Homo sapiens, UniProt P04626, D769Y); experiment: Inhibition of HER2 D769Y mutant (unknown origin)
[10] = target: Receptor tyrosine-protein kinase erbB-2 (Homo sapiens, UniProt P04626, D769H); experiment: Inhibition of HER2 D769H mutant (unknown origin)
BaF3 = experiment: Antiproliferative activity against mouse BaF3 cells harboring HER2 YVMA mutant measured for 24 hrs by CellTiter-Glo assay; assay type: functional, cell-based; details: BaF3, 24 h
[11] = target: T1, Epidermal growth factor receptor; experiment: Inhibition of human wild type EGFR using PolyEY as substrate pre-incubated for 30 mins followed by substrate addition and measured for 60 mins by spectrophotometric analysis
[12] = target: T2, Receptor tyrosine-protein kinase erbB-2; experiment: Inhibition of human wild type HER2 using PolyEY as substrate pre-incubated for 30 mins followed by substrate addition and measured for 60 mins by spectrophotometric analysis
[13] = Clearance in rat; assay type: ADME; details: in vivo
[14] = target: T2, Receptor tyrosine-protein kinase erbB-2; experiment: Inhibition of wild-type HER2 phosphorylation in human BT-474 cells; assay type: cell-based
SK-BR-3 = experiment: Antiproliferative activity against human SK-BR-3 cells assessed as reduction in cell growth incubated for 72 hrs by MTT assay; assay type: functional, cell-based; details: SK-BR-3, 72 h
NCI-N87 [15] = experiment: Antiproliferative activity against human NCI-N87 cells assessed as cell growth measured for 48 hrs by MTT assay; assay type: functional, cell-based; details: NCI-N87, 48 h
BT-474 [16] = experiment: Antiproliferative activity against human BT-474 cells assessed as reduction in cell growth; assay type: functional, cell-based
[17] = Metabolic stability in human liver microsomes assessed as half life incubated for 60 mins by LC-MS/MS analysis; assay type: ADME, Microsome

T2 sequence (P04626 whole entry): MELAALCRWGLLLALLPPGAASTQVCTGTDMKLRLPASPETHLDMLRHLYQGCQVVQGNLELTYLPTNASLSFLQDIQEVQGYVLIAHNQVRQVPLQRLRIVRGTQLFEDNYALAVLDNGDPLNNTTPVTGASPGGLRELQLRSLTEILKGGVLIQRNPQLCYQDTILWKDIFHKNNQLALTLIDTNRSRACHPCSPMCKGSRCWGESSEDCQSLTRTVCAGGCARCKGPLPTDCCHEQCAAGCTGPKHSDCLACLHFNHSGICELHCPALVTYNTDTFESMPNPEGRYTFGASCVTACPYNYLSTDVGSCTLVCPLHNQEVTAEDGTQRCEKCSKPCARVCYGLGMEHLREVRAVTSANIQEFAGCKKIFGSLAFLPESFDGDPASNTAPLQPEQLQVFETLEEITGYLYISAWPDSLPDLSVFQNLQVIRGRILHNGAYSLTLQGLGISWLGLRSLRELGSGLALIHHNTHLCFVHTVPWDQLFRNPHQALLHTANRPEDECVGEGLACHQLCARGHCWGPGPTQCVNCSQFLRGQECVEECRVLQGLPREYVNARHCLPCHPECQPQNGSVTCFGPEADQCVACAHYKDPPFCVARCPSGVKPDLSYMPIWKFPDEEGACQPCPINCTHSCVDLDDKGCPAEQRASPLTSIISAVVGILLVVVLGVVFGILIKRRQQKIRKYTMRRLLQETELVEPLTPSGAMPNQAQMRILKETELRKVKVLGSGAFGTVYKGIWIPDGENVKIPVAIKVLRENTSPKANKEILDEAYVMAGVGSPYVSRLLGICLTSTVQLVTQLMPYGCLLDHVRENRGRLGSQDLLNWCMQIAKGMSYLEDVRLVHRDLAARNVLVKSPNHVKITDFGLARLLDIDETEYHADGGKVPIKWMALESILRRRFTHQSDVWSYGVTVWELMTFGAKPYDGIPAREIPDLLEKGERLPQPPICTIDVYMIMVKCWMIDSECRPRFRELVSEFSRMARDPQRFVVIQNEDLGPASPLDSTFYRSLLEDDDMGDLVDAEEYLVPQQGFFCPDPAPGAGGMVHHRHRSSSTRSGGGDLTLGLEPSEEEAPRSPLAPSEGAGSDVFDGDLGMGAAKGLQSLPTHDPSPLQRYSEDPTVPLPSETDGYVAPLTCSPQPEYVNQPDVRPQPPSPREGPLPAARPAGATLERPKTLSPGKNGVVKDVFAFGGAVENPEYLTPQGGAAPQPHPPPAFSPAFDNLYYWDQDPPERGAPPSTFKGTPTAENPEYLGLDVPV
T1 sequence (P00533 whole entry): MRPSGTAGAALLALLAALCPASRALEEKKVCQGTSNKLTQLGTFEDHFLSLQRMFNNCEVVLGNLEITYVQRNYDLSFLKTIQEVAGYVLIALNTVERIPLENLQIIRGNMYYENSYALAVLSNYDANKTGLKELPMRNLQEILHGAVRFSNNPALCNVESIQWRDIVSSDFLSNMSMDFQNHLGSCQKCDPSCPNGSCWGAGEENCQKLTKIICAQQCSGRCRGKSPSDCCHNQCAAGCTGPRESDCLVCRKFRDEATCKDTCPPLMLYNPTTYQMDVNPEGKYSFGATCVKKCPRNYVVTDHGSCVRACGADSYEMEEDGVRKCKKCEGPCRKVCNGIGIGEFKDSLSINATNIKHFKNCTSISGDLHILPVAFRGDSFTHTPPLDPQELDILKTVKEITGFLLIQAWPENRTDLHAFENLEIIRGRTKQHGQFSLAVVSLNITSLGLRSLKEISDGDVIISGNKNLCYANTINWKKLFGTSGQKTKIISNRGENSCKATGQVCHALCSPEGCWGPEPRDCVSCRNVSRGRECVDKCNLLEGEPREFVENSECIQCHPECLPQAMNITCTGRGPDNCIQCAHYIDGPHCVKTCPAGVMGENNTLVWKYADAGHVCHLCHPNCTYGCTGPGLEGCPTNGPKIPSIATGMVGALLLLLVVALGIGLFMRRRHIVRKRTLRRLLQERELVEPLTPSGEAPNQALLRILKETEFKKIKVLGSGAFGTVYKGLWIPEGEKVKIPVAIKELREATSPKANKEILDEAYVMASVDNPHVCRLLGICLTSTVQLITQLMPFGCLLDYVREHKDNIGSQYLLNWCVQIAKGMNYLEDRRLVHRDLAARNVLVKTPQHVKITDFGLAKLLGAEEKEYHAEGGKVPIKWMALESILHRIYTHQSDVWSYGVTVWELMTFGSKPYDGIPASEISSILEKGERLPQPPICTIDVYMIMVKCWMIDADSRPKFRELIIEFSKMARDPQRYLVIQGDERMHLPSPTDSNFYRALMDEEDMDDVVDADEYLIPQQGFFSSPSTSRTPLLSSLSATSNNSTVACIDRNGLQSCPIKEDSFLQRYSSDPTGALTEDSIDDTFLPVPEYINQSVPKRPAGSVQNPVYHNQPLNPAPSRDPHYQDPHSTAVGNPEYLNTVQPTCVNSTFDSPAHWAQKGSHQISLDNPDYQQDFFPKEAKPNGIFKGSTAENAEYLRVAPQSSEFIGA
Receptor tyrosine-protein kinase erbB-2 (Homo sapiens, UniProt P04626, D769Y), sequence (P04626 23-1255 D769Y limits assumed): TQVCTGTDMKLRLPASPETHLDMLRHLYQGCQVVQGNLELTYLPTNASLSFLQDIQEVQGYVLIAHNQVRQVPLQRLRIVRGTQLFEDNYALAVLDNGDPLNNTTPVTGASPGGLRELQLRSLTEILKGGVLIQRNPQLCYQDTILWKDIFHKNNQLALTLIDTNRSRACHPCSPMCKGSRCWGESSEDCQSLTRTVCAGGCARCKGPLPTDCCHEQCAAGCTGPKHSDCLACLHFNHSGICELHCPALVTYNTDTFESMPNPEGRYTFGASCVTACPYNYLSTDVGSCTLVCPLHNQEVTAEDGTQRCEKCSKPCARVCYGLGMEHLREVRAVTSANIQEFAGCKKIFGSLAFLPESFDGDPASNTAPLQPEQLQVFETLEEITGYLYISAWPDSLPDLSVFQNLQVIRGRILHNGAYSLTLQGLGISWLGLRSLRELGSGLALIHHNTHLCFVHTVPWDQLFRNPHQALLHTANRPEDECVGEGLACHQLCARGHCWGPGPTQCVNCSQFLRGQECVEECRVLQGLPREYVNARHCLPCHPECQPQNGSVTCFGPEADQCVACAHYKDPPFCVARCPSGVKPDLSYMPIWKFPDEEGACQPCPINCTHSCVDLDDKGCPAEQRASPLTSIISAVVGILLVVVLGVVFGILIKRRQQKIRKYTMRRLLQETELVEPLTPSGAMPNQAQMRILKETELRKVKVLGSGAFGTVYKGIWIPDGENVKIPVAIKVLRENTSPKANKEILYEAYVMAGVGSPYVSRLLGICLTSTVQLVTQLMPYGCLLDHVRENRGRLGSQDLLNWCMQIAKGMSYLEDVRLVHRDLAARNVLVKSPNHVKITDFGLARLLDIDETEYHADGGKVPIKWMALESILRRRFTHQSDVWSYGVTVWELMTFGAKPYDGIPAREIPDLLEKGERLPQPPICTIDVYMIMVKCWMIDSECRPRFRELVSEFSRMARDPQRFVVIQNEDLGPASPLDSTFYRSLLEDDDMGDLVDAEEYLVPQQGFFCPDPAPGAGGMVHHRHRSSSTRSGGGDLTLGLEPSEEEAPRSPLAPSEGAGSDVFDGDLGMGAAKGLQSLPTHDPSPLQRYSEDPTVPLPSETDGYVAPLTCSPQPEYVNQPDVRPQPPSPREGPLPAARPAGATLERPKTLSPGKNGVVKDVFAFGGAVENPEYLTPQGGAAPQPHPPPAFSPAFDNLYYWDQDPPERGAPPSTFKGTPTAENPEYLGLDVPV
Receptor tyrosine-protein kinase erbB-2 (Homo sapiens, UniProt P04626, D769H), sequence (P04626 23-1255 D769H limits assumed): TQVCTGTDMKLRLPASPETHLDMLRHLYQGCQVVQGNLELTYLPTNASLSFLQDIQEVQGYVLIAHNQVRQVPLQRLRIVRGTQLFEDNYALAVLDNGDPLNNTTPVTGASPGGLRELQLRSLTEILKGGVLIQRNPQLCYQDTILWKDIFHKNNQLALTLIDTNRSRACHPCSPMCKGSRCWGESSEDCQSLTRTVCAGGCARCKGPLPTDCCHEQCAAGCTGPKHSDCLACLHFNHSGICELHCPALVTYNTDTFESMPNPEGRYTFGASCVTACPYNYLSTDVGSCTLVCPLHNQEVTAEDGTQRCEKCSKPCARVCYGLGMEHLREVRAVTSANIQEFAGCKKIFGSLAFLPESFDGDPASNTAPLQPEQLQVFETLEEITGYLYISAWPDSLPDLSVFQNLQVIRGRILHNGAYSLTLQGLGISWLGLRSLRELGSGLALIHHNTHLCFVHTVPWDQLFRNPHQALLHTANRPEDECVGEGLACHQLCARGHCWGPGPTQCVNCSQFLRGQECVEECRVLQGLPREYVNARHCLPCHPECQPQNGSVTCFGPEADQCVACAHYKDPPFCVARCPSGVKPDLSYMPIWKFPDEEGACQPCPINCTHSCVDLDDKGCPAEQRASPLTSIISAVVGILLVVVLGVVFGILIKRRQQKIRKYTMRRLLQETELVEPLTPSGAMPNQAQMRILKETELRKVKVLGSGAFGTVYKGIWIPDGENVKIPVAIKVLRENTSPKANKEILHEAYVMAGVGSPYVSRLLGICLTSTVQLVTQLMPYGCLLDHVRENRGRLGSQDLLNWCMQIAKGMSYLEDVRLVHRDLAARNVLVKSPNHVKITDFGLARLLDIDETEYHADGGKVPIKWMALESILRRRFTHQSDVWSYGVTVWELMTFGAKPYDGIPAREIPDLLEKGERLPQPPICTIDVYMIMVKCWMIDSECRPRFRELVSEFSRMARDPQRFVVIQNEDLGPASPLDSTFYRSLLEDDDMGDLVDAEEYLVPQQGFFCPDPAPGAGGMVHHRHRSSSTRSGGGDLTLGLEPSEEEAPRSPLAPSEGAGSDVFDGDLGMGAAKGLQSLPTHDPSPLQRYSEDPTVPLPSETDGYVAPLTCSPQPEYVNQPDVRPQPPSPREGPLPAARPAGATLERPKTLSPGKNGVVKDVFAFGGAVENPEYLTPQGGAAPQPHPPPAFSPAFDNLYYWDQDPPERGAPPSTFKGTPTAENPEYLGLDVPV

`CCOCCOc1cc2ncnc(Nc3ccc(OCc4ccccn4)c(Cl)c3)c2cc1NC(=O)/C=C/CN(C)C` showed an IC50 [1] of 60.6 nM and an IC50 [2] of 1.01 nM.
In the case of `COc1cc2ncnc(Nc3ccc(Oc4cccc5ccc(C)nc45)c(C)c3)c2cc1OC`, the IC50 [2] is reported as 11 nM and the IC50 [3] is reported as 14 nM.
With `C=CC(=O)N1CCC[C@@H](n2nc(-c3ccc(OCc4cccc(C)n4)cc3)c3c(N)ncnc32)C1` the IC50 [2] was 0.12 nM and the IC50 [3] was 16.4 nM.
Compound `C=CC(=O)N1C[C@@H]2C[C@H]1CN2C(=O)Oc1cc2c(Nc3ccc(Cl)c(Cl)c3F)ncnc2cc1OC` has an IC50 [3] of 6.07 nM.
`C=CC(=O)N1CCN(C(=O)Oc2cc3c(Nc4cccc(Cl)c4F)ncnc3cc2OC)[C@H](C)C1` showed an IC50 [3] of 152 nM.
Work on `CN1CCN(CCCOc2ccc3ncnc(Nc4ccc(OCc5cccc(F)c5)c(Cl)c4)c3c2)CC1` yielded a half-life [4] of 0.957 h, an IC50 (BT-474 [5]) of 80 nM and an IC50 [6] of 12 nM.
Work on `CCOc1cc2ncc(C#N)c(Nc3ccc(OCc4ccccn4)c(Cl)c3)c2cc1NC(=O)/C=C/[C@H]1CCCN1C` [PYROTINIB] yielded an IC50 [3] of 38 nM.
For `CCOc1cc2ncnc(Nc3ccc(Oc4ccn5ncnc5c4)c(C)c3)c2cc1NC(=O)/C(F)=C/[C@H]1CCCN1C` [SPH-5030], the IC50 (NCI-N87 [7]) was 1.09 nM, the IC50 [2] was 8.13 nM and the half-life [8] was 9.24 h. The IC50 [9] was < 1 nM, the IC50 (BT-474 [5]) was 2.01 nM and the IC50 [10] was < 1 nM. The IC50 [3] was 3.51 nM.
In the case of `C=CC(=O)N1CCN(c2ncc3ncnc(Nc4ccc(Oc5ccc6c(c5)ncn6C)c(C)c4)c3n2)CC1`, the IC50 (BaF3) is reported as 16 nM, the IC50 [11] is reported as > 5 nM and the IC50 [12] is reported as 16 nM.
With `O=C(Nc1ccc2ncnc(Nc3ccc(OCc4cccc(F)c4)c(Cl)c3)c2c1)c1ccc(CNCCO)cc1` the IC50 (BT-474 [5]) was 200 nM, the IC50 [3] was 12 nM and the clearance [13] was ≤ 9.6 mL/min/kg.
Work on `Cc1cc(Nc2ncnc3cccc(O[C@H]4CCN(C)CC4(F)F)c23)ccc1Oc1ccn2ncnc2c1` yielded an IC50 [14] of 5.8 nM.
`C=CC(=O)N1CCN(c2ncc3ncnc(Nc4ccc(Oc5ccn6ncnc6c5)c(C)c4)c3n2)CC1` gave an IC50 (BaF3) of 5.8 nM, an IC50 [11] of 2200 nM and an IC50 [12] of 5.8 nM.
Compound `C=CC(=O)Nc1cccc(-c2c[nH]c3ncnc(Nc4ccc(OCc5ccccn5)c(Cl)c4)c23)c1` has an IC50 (BaF3) of 17 nM.
`COc1cc2c(Nc3ccc(Oc4ccn5ncnc5c4)c(C)c3)ncnc2cc1OCCCN1CCN(CCCCCCCNc2ccc3c(c2)C(=O)N(C2CCC(=O)NC2=O)C3=O)CC1` (centres undefined) showed an IC50 [3] of 0.04 nM.
In the case of `CCOc1cc2ncnc(Nc3ccc(Oc4ccn5ncnc5c4)c(C)c3)c2cc1NC(=O)/C=C/[C@H]1CCCN1C`, the IC50 (NCI-N87 [7]) is reported as 1.12 nM, the IC50 [2] is reported as 1.36 nM and the IC50 (BT-474 [5]) is reported as 2.13 nM. It also gave an IC50 [3] of 1.67 nM.
For `COCCOc1ccc2ncnc(Nc3ccc(Oc4cccc5ccc(C)nc45)c(C)c3)c2c1`, the IC50 [2] was 143 nM and the IC50 [3] was 42 nM.
In the case of `Cc1cc(Nc2ncnc3ccc(NC(=O)/C=C/[C@H]4CCCN4C)cc23)ccc1Oc1cc2ncnn2cn1`, the IC50 [2] is reported as 1.19 nM and the IC50 [3] is reported as 1.4 nM.
In the case of `Cc1ccc2cccc(Oc3ccc(Nc4ncnc5ccc(NC(=O)C6CCCC6)cc45)cc3C)c2n1`, the IC50 [2] is reported as 2010 nM and the IC50 [3] is reported as 314 nM.
For `C=CC(=O)N1CCC(Oc2cc3c(Nc4ccc(Cl)c(Cl)c4F)ncnc3cc2OC)CC1` [POZIOTINIB], the IC50 [3] was 1.69 nM.
Work on `Cc1cc(Nc2ncnc3cccc(OC4CCN(C)CC4)c23)ccc1Oc1ccn2ncnc2c1` yielded an IC50 [14] of 18 nM.
For `C=CC(=O)NC1CCN(c2ncc3ncnc(Nc4ccc(Oc5ccc6c(c5)ncn6C)c(C)c4)c3n2)CC1` [ZONGERTINIB], the IC50 [3] was 13 nM.
For `Cc1ccc2cccc(Oc3ccc(Nc4ncnc5ccc(NC6CCCC6)cc45)cc3C)c2n1`, the IC50 (SK-BR-3) was 238 nM, the IC50 [2] was 155 nM and the IC50 [3] was 8 nM.
For `C=CC(=O)N1CCC[C@@H](n2nc(C(=O)Nc3ccc(CC(=O)N(C)C)c(C)c3C)c3c(N)ncnc32)C1`, the IC50 [2] was 65 nM and the IC50 [3] was 16.4 nM.
`C=CC(=O)N1CCN(c2ncc3ncnc(Nc4ccc(Oc5ccccc5)c(C)c4)c3n2)CC1` showed an IC50 (BaF3) of 12 nM, an IC50 [11] of 200 nM and an IC50 [12] of 12 nM.
For `COCCOc1cc2ncnc(Nc3ccc(Oc4cccc5ccc(C)nc45)c(C)c3)c2cc1OCCOC`, the IC50 [2] was 12 nM and the IC50 [3] was 12 nM.
In the case of `C=CC(=O)Nc1cccc(-c2c(-c3ccc(N4CCN(C)CC4)cc3)[nH]c3ncnc(Nc4ccc(OCc5ccccn5)c(Cl)c4)c23)c1`, the IC50 [3] is reported as ~2.3 nM.
In the case of `Cc1cc(Nc2ncnc3ccc(NC(=O)/C=C/[C@H]4CCCN4C)cc23)ccc1Oc1ccn2ncnc2c1`, the IC50 (NCI-N87 [15]) is reported as 2.65 nM, the IC50 (BT-474 [16]) is reported as 2.4 nM and the half-life [17] is reported as > 116 h.
`COc1ccc2c(Nc3ccc(Oc4cccc5ccc(C)nc45)c(C)c3)ncnc2c1` gave an IC50 [2] of 166 nM and an IC50 [3] of 239 nM.
In the case of `Cc1cc(Nc2ncnc3ccc(NC4=NC(C)(C)CO4)cc23)ccc1Oc1ccn2ncnc2c1` [TUCATINIB], the IC50 [2] is reported as > 500 nM and the IC50 [3] is reported as 8 nM.
Work on `CCOc1cc2ncc(C#N)c(Nc3ccc(Oc4ccn5ncnc5c4)c(C)c3)c2cc1NC(=O)/C=C/CN(C)C` yielded an IC50 [2] of 7.04 nM and an IC50 [3] of 2.21 nM.
